Legend:
[1] = system: non-transformed normal BJ cells; assay: BrdU incorporation and FACS analysis (cell cycle arrest); type: cell-based, human; conditions: 24 h; 2.5 and 5 μM (FIG. 9A, 9C)
Procedure: A: is output from a FACS analysis of isogenic-non-transformed, without (panels a-c) (WT) or with (panels d-f) shRNA-mediated knockdown of p53 (p53KD), and oncogene-transformed BJ cells (panels g-i), each treated with 0, 5 or 2.5 μM Compound 1 (a131) for 24 h. Cells were doubly stained with PI (horizontal axis) and BrdU (vertical axis). The BrdU-positive population in panels a-c are indicated as arrows. B: is a diagrammatic representation of an immunoblot analysis showing isogenic non-transformed (normal) and oncogene-transformed BJ cells (transformed) treated with Compound 1 (a131) at 0, 2.5 or 5 μM for 24 h or 48 h. Cells were harvested and total lysates were analysed by detecting p53 and p21. Antibodies raised against β-actin were used as an internal loading control. C and D are histograms showing the percentage of bromodeoxyuracil (BrdU)-positive non-transformed (normal) BJ cells. C: Cells were treated with Group 1 Compound 1 (a131) at 2.5 and 5 μM, Compound 23 (b36) at 2.5 and 5 μM, and Compound 21 (b35) at 5 μM, and Group 2 Compound 25 (a166) at 2.5 and 5 μM, for 24 h. Cells were doubly stained with propidium iodide (PI) and BrdU, and subjected to FACS analysis. The BrdU-positive population are plotted as bars. D: Cells were treated with Group 1 Compound 1 (a131), Compound 16 (b5), and Compound 17 (b9); Group 2 Compound 13 (b12), Compound 12 (b16) and Compound 25 (a166), and Group 3 Compound 3 (a159) at 5 μM for 48 h. The percentage of cells with BrdU positive population, in comparison with DMSO control vehicle, is shown with mean values±S.D. (n=3).
Isogenic non-transformed and oncogene-transformed BJ cells (cultured as in Biology Example 3) were treated with Compound 1 at final concentrations of 2.5 and 5 μM for 24 h. The treated cells were then treated with 30 μM final concentration of 5-bromo-2′-deoxyuridine (BrdU, SIGMA) for 1 h to detect DNA synthesis as a marker for cell proliferation. Subsequently, the cells were fixed in EtOH at 4° C. overnight and permeabilized with 2N HCl/0.5% Triton X-100 for 30 min. The cells were then treated with 0.1M sodium tetraborate for 2 min and stained with anti-BrdU antibody (Invitrogen, Cat#B35129) for 60 min, followed by a 30 min treatment with 20 μg/mL of propidium iodide (PI) and 10 μg/mL RNaseA.
Furthermore, the abilities of additional five (5) Compounds to arrest cells at the stage of G1/S phase of the cell cycle were evaluated. […] The abilities of these Compounds to arrest cells at the stage of G1/S phase of the cell cycle were then measured by using BrdU incorporation assay and FACS analysis. The percentage of cells with BrdU positive population in comparison with DMSO control vehicle was determined and plotted with mean values±S.D. (n=3).

[2] = system: pH3 (Ser10) and LC3 in BJ transformed cells; assay: Immunoblot classification of compounds by pH3 and LC3 (FIG. 4); type: cell-based, human; conditions: 5 μM, 24 h
Procedure: (§1) FIG. 4 compares the ability of Compound 1 (a131), and various derivatives thereof (referred to using their code numbers for brevity; the designated chemical compound for each code number is provided in the chemical examples section below), to inhibit autophagy and/or mitosis. BJ transformed cells were treated with 5 μM of various Compounds as shown, for 24 h. Cells were harvested and total lysates were analysed by detecting the mitotic marker phospho-histone H3 at serine 10 (pH3 (Ser10)) and the autophagosome marker LC3. Antibodies raised against β-actin were used as an internal loading control.
(§2) Derivatives of Compound 1 were tested to see if they had similar dual activity, or presented only one of the activities of Compound 1. The protocol for immunoblot analysis described in Biology Example 1 was applied to the additional indicated compounds.

[3] = system: mitotic marker phospho-histone H3 at serine 10 (pH3 (Ser10)) in transformed BJ cells; assay: Immunoblot analysis of mitotic marker pH3 (Ser10), derivatives of Compound 1; type: cell-based; conditions: Homo sapiens, band intensities pH3(Ser10)/β-actin vs DMSO control, 24 h
Procedure: as §1
(§3) The ability of Compound 1 to inhibit lysosome function was examined using immunoblotting. HeLa cervical cancer cells were cultured in Dulbecco's modified Eagle's medium (DMEM) supplemented with 10% Fetal Bovine Serum (FBS, Thermo Scientific). The HeLa cells were treated with different concentrations of Compound 1 (0.625, 1.25, 2.5, 5 and 10 μM, dimethyl sulfoxide (DMSO, Kanto Kagaku)), chloroquine (CQ) (1.25, 2.5, 10, 50 and 100 μM, DMSO) or DMSO for 6 h. Then, the treated cells were harvested and lysed in 1% triton lysis buffer [25 mM Tris HCl (pH8.0), 150 mM NaCl, 1% triton-X100, 1 mM dithiothreitol (DTT), protease inhibitor mix (Complete Mini, Roche) and phosphatase inhibitor (PhosphoStop, Roche)]. The proteins in total lysates were boiled with sample buffer (60 mM Tris-HCl (pH 6.8), 25% glycerol, 2% SDS, 14.4 mM 2-mercaptoethanol, 0.1% bromophenol blue) and resolved by 14% tris-glycine sodium dodecyl sulfate polyacrylamide gel electrophoresis (SDS-PAGE) and subjected to immunoblot analysis.
(§4) Defects in lysosome function and inhibition of autophagy can be measured by accumulation of LC3-phosphatidylethanolamine conjugated non-soluble form (LC3-II), which are converted from soluble LC3-I. Thus, antibodies raised against LC3 (Cell Signaling, Cat#4108) were used to determine lysosomal function and integrity. Antibodies raised against phosphorylated histone H3 at serine 10 residue (pH3) (Cell signaling, Cat#3377) were used as the marker for mitotic dysfunction and arrest. Antibodies raised against β-actin (Millipore, Cat#MAB1501) were used as an internal loading control. The inhibitory ability of Compound 1 was also quantitatively compared to CQ.
as §2
(§5) Activities of compounds were determined by two independent experiments. First, Compounds were classified according to the intensity of increase in each of the mitotic marker phospho-histone H3 at serine 10 (pH3 (Ser 10)) and the autophagosome marker LC3, respectively, at 1.25 μM, when compared with 1.25 μM Compound 1 (a131).
(§6) Compounds classified “++” on either “mitosis” or “inhibits lysosome” show similar increase in each of the mitotic marker phospho-histone H3 at serine 10 (pH3 (Ser10)) and the autophagosome marker LC3, respectively, at 2.5 μM, when compared with 1.25 μM Compound 1 (a131); and compounds classified “+” on either “mitosis” or “inhibits lysosome” show similar increase in each of the mitotic marker phospho-histone H3 at serine 10 (pH3 (Ser10)) and the autophagosome marker LC3, respectively, at a concentration range of 5-10 μM, when compared with 1.25 μM Compound 1 (a131).
Compounds classified “+/−” on either “mitosis” or “inhibits lysosome” show less increase in each of the mitotic marker phospho-histone H3 at serine 10 (pH3 (Ser10)) and the autophagosome marker LC3, respectively, at a concentration range of 5-10 μM, when compared with 1.25 μM Compound 1 (a131).
Next, the ability of Compound 1 and its derivatives to induce mitotic arrest in transformed BJ cells was quantified as the fold induction of band intensities [pH3(Ser10)/β-actin] in comparison with DMSO control. […]

[4] = system: autophagosome marker LC3 (LC3 II/LC3 I) in transformed BJ cells; assay: Immunoblot analysis of autophagosome marker LC3 (lysosome function), derivatives of Compound 1; type: cell-based; conditions: Homo sapiens, band intensities LC3 II/LC3 I vs DMSO control, 24 h
Procedure: as §1, §3, §4, §2, §5, §6
Compounds classified “+/−” on either “mitosis” or “inhibits lysosome” show less increase in each of the mitotic marker phospho-histone H3 at serine 10 (pH3 (Ser10)) and the autophagosome marker LC3, respectively, at a concentration range of 5-10 μM, when compared with 1.25 μM Compound 1 (a131). […]

[5] = system: HeLa cells (mitotic spindles, β-tubulin/DAPI); assay: Immunofluorescence analysis of mitotic spindles and chromosomes; type: cell-based, human; conditions: 6 h, Compound 1 2.5 μM, CQ 15 or 25 μM
Procedure: HeLa cells, treated with Compound 1 (a131) at 2.5 μM (FIG. 3b), chloroquine (CQ) at 15 μM (FIG. 3c) or 25 μM (FIG. 3d), or DMSO (FIG. 3a) for 6 h, were fixed in methanol and subjected to immunofluorescence analysis using antibodies against β-tubulin to visualize proper formation of mitotic spindles. The condensed mitotic chromosomes were visualized by counterstaining with DAPI. Only Compound 1 (a131)-treated HeLa cells arrested in mitosis with misaligned chromosomes and disorganized spindles (FIG. 3b). The bars in FIGS. 3a-d represent 5 μm in length.
To confirm the inhibitory mitotic progression ability, HeLa cervical cancer cells as cultured above were treated with Compound 1 (2.5 μM, DMSO), CQ (15 or 25 μM, DMSO) or DMSO for 6 h. The treated cells were fixed in methanol and subjected to immunofluorescence analysis using antibodies against β-tubulin (Abcam, Cat#ab52623) to visualize proper formation of mitotic spindles. The condensed mitotic chromosomes were visualized by counterstaining with DAPI.

| SMILES | BrdU-positive cell population [1] | Inhibition of lysosome function and/or mitosis (FIG. 4) [2] | fold induction at 5 µM [3] | fold induction at 5 µM [4] | mitotic arrest, chromosome alignment and mitotic spindles [5] |
| --- | --- | --- | --- | --- | --- |
| N#C/C(=C\c1cccc2cnccc12)c1cn(C(=O)C2CCNCC2)c2ccccc12 [Compound 21, (Z)-3-(isoquinolin-5-yl)-2-(1-(piperidine-4-carbonyl)-1H-indol-3-yl)acrylonitrile] | substantially decreased the population of BrdU-positive cells | exhibit the dual properties of inhibiting both lysosome function and mitosis | 10.1 | 7.3 |  |
| N#C/C(=C\c1cccc2cnccc12)c1c[nH]c2ccc(Br)cc12 [Compound 8, (Z)-2-(5-bromo-1H-indol-3-yl)-3-(isoquinolin-5-yl)acrylonitrile] |  | exhibit the dual properties of inhibiting both lysosome function and mitosis | 2.1 | 4 |  |
| CCN(CC)CCCC(C)Nc1ccnc2cc(Cl)ccc12 (stereo not drawn) [CQ, chloroquine, reference compound] |  |  |  |  | no such effects were seen |
| N#C/C(=C\c1cccc2cnccc12)c1n[nH]c2ccccc12 [Compound 34, (Z)-2-(1H-indazol-3-yl)-3-(isoquinolin-5-yl)acrylonitrile] |  | inhibit lysosome function only | 1.4 | 2 |  |
| N#C/C(=C\c1cccc2cnccc12)c1cn(C(=O)CCN)c2ccccc12 [Compound 22, (Z)-2-(1-(3-aminopropanoyl)-1H-indol-3-yl)-3-(isoquinolin-5-yl)acrylonitrile] |  | exhibit the dual properties of inhibiting both lysosome function and mitosis | 2.1 | 4.1 |  |
| N#C/C(=C\c1cccc2cnccc12)c1c[nH]c2c(CN3CCCC3)cccc12 [Compound 33, (Z)-3-(isoquinolin-5-yl)-2-(7-((pyrrolidin-1-yl)methyl)-1H-indol-3-yl)acrylonitrile] |  | inhibit lysosome function only | 0.8 | 3.7 |  |
| N#C/C(=C\c1cccc2cnccc12)c1cn(C(=O)C2CCN(C(=O)CCCC[C@@H]3SC[C@@H]4NC(=O)N[C@@H]43)CC2)c2ccccc12 [Compound 23, (Z)-3-(isoquinolin-5-yl)-2-(1-(1-(5-((3aS,4S,6aR)-2-oxohexahydro-1H-thieno[3,4-d]imidazol-4-yl)pentanoyl)piperidine-4-carbonyl)-1H-indol-3-yl)acrylonitrile] | substantially decreased the population of BrdU-positive cells | exhibit the dual properties of inhibiting both lysosome function and mitosis | 18.6 | 5.7 |  |
| C(=C\c1c[nH]c2ccccc12)/c1cncc2cnccc12 [Compound 26, 4-((E)-2-(1H-indol-3-yl)vinyl)-2,7-naphthyridine] |  | inhibit lysosome function only | 1.2 | 2.7 |  |
| N#C/C(=C\c1cccc2cnccc12)c1c[nH]c2cc(CN3CCCC3)ccc12 [Compound 31, (Z)-3-(isoquinolin-5-yl)-2-(6-((pyrrolidin-1-yl)methyl)-1H-indol-3-yl)acrylonitrile] |  | inhibit lysosome function only | 1.1 | 5.7 |  |
| CC(C)(C)OC(=O)NCCC(=O)n1cc(/C(C#N)=C/c2cccc3cnccc23)c2ccccc21 [Compound 20, (Z)-tert-butyl (3-(3-(1-cyano-2-(isoquinolin-5-yl)vinyl)-1H-indol-1-yl)-3-oxopropyl)carbamate] |  | exhibit the dual properties of inhibiting both lysosome function and mitosis | 4.8 | 3.9 |  |

— patent publication US10308631B2, “Selective anti-cancer compounds” (NATIONAL UNIVERSITY OF SINGAPORE, priority 2015, dated 2019)
